For one compound, IC50 results are on record in US20100226992A1 (ALCON RESEARCH, LTD., priority 2009, published 2010).

This assay concerns FGFR. Kind of assay: Kinase inhibition, cell-free enzymatic assay. The assay is classed as biochemical. The conditions noted are these: 1 mM ATP.

One may read the IC50 as the concentration at which inhibition is half-maximal. Take `Cc1ccc(F)c(NC(=O)Nc2ccc(-c3cccc4[nH]nc(N)c34)cc2)c1` [RTK Inhibitor, N-[4-(3-amino-1H-indazol-4-yl)phenyl]-N′-(2-fluoro-5-methylphenyl)urea]: the IC50 was above 12.5 µM.
